Patent US20260070945A1, “MACROCYCLIC IMMUNOMODULATORS” (Bristol-Myers Squibb Company, priority 2022, published 2026)
pIC50: −log10 of the molar value. Read-outs that look alike come from different tables or passages of the source. Where a SMILES comes first, the peptide text is derived from it. Bridges are numbered along the chain shown (N, C = ends). [ ]: non-standard residue; d: D form. The star is where a group is joined. ξ: configuration not given here. Phe(3-CF3) = N[C@@H](Cc1cccc(C(F)(F)F)c1)C(=O)O; Phe(4-COOH) = N[C@@H](Cc1ccc(C(=O)O)cc1)C(=O)O; Bip = N[C@@H](Cc1ccc(-c2ccccc2)cc1)C(=O)O; Phe(3-Me) = Cc1cccc(C[C@H](N)C(=O)O)c1; NH(CH2)12COOH = O=C(O)CCCCCCCCCCCCN*; Val(3-OH) = CC(C)(O)[C@H](N)C(=O)O; 4Pal = N[C@@H](Cc1ccncc1)C(=O)O; Cha = N[C@@H](CC1CCCCC1)C(=O)O; Ile(3ξ) = CCC(C)[C@H](N)C(=O)O; 12Ado = NCCCCCCCCCCCC(=O)O; Carboxymethyl = O=C(O)C*; NMeA = CN[C@@H](C)C(=O)O; Aun = NCCCCCCCCCCC(=O)O; Dab = NCC[C@H](N)C(=O)O; AEEA = NCCOCCOCC(=O)O

Biological target: T1, PD-1/PD-L1 interaction (PE-labeled human PD-L1-Ig binding to Jurkat cell line over-expressing human PD-1) (Homo sapiens, UniProt Q15116)
T1 construct: expressed in transfected cells; host or cells: Jurkat
Experiment: Jurkat-PD-1 Cell Binding High-Content Screening Assay (CBA)
Outline: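 Jurkat-hPD-1 cells (8×10^3/well) in DMEM with 10% fetal calf serum were preincubated with compound for 2 h at 37 °C. PE-labeled PD-L1-Ig was then added at 20 nM final for 1 h. Cells were fixed in paraformaldehyde with Hoechst 33342, washed and imaged by high-content imaging.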

[1] = Jurkat-hPD-1 cells, PE-labeled PD-L1-Ig 20 nM final; read-out: Jurkat HPD1 PDL1 IC50

T1 sequence (Q15116 25-288): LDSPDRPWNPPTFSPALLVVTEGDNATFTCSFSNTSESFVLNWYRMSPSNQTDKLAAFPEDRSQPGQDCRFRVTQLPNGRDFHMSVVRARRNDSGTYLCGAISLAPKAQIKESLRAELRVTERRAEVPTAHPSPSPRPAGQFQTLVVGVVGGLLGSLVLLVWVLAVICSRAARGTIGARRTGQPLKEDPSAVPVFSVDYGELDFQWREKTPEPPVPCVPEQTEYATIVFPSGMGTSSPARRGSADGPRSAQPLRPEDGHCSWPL

Row | SMILES | pIC50 (PE-labeled PD-L1-Ig 20 nM final, Jurkat-hPD-1 cells; read-out: Jurkat HPD1 PDL1 IC50) | pIC50 [1]
1 | Cc1cccc(C[C@@H]2NC(=O)[C@H](CC(=O)O)NC(=O)[C@H](Cc3ccc(OCC(=O)O)cc3)NC(=O)[C@H]([C@@H](C)O)NC(=O)CSC[C@@H](C(=O)N[C@@H](CCN)C(=O)NCCOCCOCC(=O)NCCCCCCCCCCCC(=O)O)NC(=O)[C@@H](C)NC(=O)[C@H](C(C)C)NC(=O)[C@H](CC3CCCCC3)NC(=O)[C@H](CCN)NC(=O)[C@@H](CC(C)C)NC(=O)[C@H](C)N(C)C(=O)[C@H](Cc3ccc(OCC(=O)O)cc3)NC(=O)[C@H](Cc3ccc(-c4ccccc4)cc3)NC(=O)[C@H](Cc3ccc(OCC(=O)O)cc3)NC2=O)c1 [Example 2670] ({CH2CO}-TY(Carboxymethyl)D[Phe(3-Me)]Y(Carboxymethyl)[Bip]Y(Carboxymethyl)[NMeA][dL][Dab][Cha]V[dA]C[Dab][AEEA][12Ado]-OH; thioether N-14) | 8.18 | 
2 | Cc1cccc(C[C@@H]2NC(=O)[C@H](CC(=O)O)NC(=O)[C@H](Cc3ccc(OCC(=O)O)cc3)NC(=O)[C@H]([C@@H](C)O)NC(=O)CSC[C@@H](C(=O)N[C@@H](CC(N)=O)C(=O)NCCCCCCCCCCC(=O)O)NC(=O)[C@H](CCC(=O)O)NC(=O)[C@H](C(C)(C)O)NC(=O)[C@H](CC3CCCCC3)NC(=O)[C@H](CCN)NC(=O)[C@@H](CC(C)C)NC(=O)[C@H](C)N(C)C(=O)[C@H](Cc3ccc(OCC(=O)O)cc3)NC(=O)[C@H](Cc3ccc(-c4ccccc4)cc3)NC(=O)[C@H](Cc3ccc(OCC(=O)O)cc3)NC2=O)c1 [Example 1419] ({CH2CO}-TY(Carboxymethyl)D[Phe(3-Me)]Y(Carboxymethyl)[Bip]Y(Carboxymethyl)[NMeA][dL][Dab][Cha][Val(3-OH)]ECN[Aun]-OH; thioether N-14) |  | 6.73
3 | CCC(C)[C@@H]1NC(=O)[C@H](Cc2ccc(-c3ccccc3)cc2)NC(=O)[C@H](CC(C)C)NC(=O)[C@H](Cc2c[nH]c3ccccc23)NC(=O)[C@H](CC(=O)O)NC(=O)[C@H](Cc2ccc(C(=O)O)cc2)NC(=O)[C@H](Cc2ccc(OCC(=O)O)cc2)NC(=O)CSC[C@@H](C(=O)NCCCCCCCCCCC(=O)O)NC(=O)[C@H](CCCNC(=N)N)NC(=O)[C@H](C(C)C)NC(=O)[C@H](CC2CCCCC2)NC(=O)[C@H](CCN)NC(=O)[C@@H](CC(C)C)NC(=O)[C@H](C)N(C)C1=O (stereo partly drawn) [Example 2237] ({CH2CO}-Y(Carboxymethyl)[Phe(4-COOH)]DWL[Bip][Ile(3ξ)][NMeA][dL][Dab][Cha]VRC[Aun]-OH; thioether N-14) |  | 7.82

Further compounds by rising pIC50 [1], results first:

Row | pIC50 (PE-labeled PD-L1-Ig 20 nM final, Jurkat-hPD-1 cells; read-out: Jurkat HPD1 PDL1 IC50) | pIC50 [1] | SMILES
4 |  | 7.52 | CC(C)C[C@H]1NC(=O)[C@H](C)N(C)C(=O)[C@H](C(C)C)NC(=O)[C@H](Cc2ccc(-c3ccccc3)cc2)NC(=O)[C@H](C(C)C)NC(=O)[C@H](Cc2c[nH]c3ccccc23)NC(=O)[C@H](CC(=O)O)NC(=O)[C@H](Cc2ccncc2)NC(=O)[C@H](Cc2ccc(OCC(=O)O)cc2)NC(=O)CSC[C@@H](C(=O)N[C@@H](CCN)C(=O)NCCOCCOCC(=O)NCCCCCCCCCCCC(=O)O)NC(=O)[C@H](CO)NC(=O)[C@H](C(C)C)NC(=O)[C@H](CC2CCCCC2)NC(=O)[C@H](CCN)NC1=O [Example 2117] ({CH2CO}-Y(Carboxymethyl)[4Pal]DWV[Bip]V[NMeA][dL][Dab][Cha]VSC[Dab][AEEA][12Ado]-OH; thioether N-14)
5 |  | 7.67 | CC(C)C[C@H]1NC(=O)[C@H](C)N(C)C(=O)[C@H](CCC(N)=O)NC(=O)[C@H](Cc2ccc(-c3ccccc3)cc2)NC(=O)[C@H](Cc2ccc(C(=O)O)cc2)NC(=O)[C@H](Cc2cccc(C(F)(F)F)c2)NC(=O)[C@H](CC(=O)O)NC(=O)[C@H](Cc2ccc(OCC(=O)O)cc2)NC(=O)[C@H](Cc2ccc(C(=O)O)cc2)NC(=O)CSC[C@@H](C(=O)N[C@@H](CCN)C(=O)NCCCCCCCCCCCCC(=O)O)NC(=O)[C@H](CCC(=O)O)NC(=O)[C@H](C(C)C)NC(=O)[C@H](CC2CCCCC2)NC(=O)[C@H](CCN)NC1=O [Example 1143] ({CH2CO}-[Phe(4-COOH)]Y(Carboxymethyl)D[Phe(3-CF3)][Phe(4-COOH)][Bip]Q[NMeA][dL][Dab][Cha]VEC[Dab]-{NH(CH2)12COOH}; thioether N-14)
